Data published in BindingDB's records for doi:10.1016/j.bmcl.2010.09.011 (The University of Tokyo, 2010).

Columns and labels:
[1] = Vitamin-D activity at VDR receptor in human HL60 cells assessed as induction of cell differentiation by NBT reduction assay
[2] = Antiandrogen activity against androgen receptor in androgen-dependent mouse SC3 cells assessed as inhibition of testosterone-induced cell proliferation by WST1 assay

Row | SMILES | EC50 [1] [µM] | IC50 [2] [µM]
1 | CCC(CC)(c1ccc(OCC(=O)C(C)(C)Cc2ccc3ccccc3c2)c(C)c1)c1ccc(OC[C@@H](O)CO)c(C)c1 [(S)-1-(4-(3-(4-(2,3-dihydroxypropoxy)-3-methylphenyl)pentan-3-yl)-2-methylphenoxy)-3,3-dimethyl-4-(naphthalen-2-yl)butan-2-one] | > 30 | > 30
2 | CCC(CC)(c1ccc(OC[C@H](O)CO)c(C)c1)c1ccc(OC[C@H](O)C(C)(C)C)c(C)c1 [(R)-3-(4-(3-(4-((R)-2-hydroxy-3,3-dimethylbutoxy)-3-methylphenyl)pentan-3-yl)-2-methylphenoxy)propane-1,2-diol] | – | 0.014
3 | CCC(CC)(c1ccc(OCC(O)C23CC4CC(CC(C4)C2)C3)c(C)c1)c1ccc(OC[C@@H](O)CO)c(C)c1 (stereo not given in full) | 22 | > 10
4 | CCC(CC)(c1ccc(OC[C@@H](O)CO)c(C)c1)c1ccc(O[C@@H]2CN(C(=O)OCc3ccccc3)C[C@@H]2O)c(C)c1 [benzyl 3-(4-(3-(4-((S)-2,3-dihydroxypropoxy)-3-methylphenyl)pentan-3-yl)-2-methylphenoxy)-4-hydroxypyrrolidine-1-carboxylate] | > 30 | > 30
5 | CCC(CC)(c1ccc(OCC(=O)C23CC4CC(CC(C4)C2)C3)c(C)c1)c1ccc(OC[C@@H](O)CO)c(C)c1 | > 30 | > 30
6 | CCC(CC)(c1ccc(OC[C@@H](O)CO)c(C)c1)c1ccc(OC[C@@H](O)C(C)(C)C)c(C)c1 [(S)-3-(4-(3-(4-((S)-2-hydroxy-3,3-dimethylbutoxy)-3-methylphenyl)pentan-3-yl)-2-methylphenoxy)propane-1,2-diol] | – | 0.013
7 | CCC(CC)(c1ccc(OC[C@@H](O)CO)c(C)c1)c1ccc(O[C@@H]2CN(Cc3ccccc3)C[C@@H]2O)c(C)c1 [(2S)-3-(4-(3-(4-(1-benzyl-4-hydroxypyrrolidin-3-yloxy)-3-methylphenyl)pentan-3-yl)-2-methylphenoxy)propane-1,2-diol] | > 30 | > 10
8 | CCC(CC)(c1ccc(OCC(O)C(C)(C)CCc2ccccc2)c(C)c1)c1ccc(OC[C@@H](O)CO)c(C)c1 (stereo partly drawn) [(2S)-3-(4-(3-(4-(2-hydroxy-3,3-dimethyl-5-phenylpentyloxy)-3-methylphenyl)pentan-3-yl)-2-methylphenoxy)propane-1,2-diol] | 7.1 | 0.88
9 | CCC(CC)(c1ccc(OCC(O)C(C)(C)CCCCc2ccccc2)c(C)c1)c1ccc(OC[C@@H](O)CO)c(C)c1 (stereo partly drawn) [(2S)-3-(4-(3-(4-(2-hydroxy-3,3-dimethyl-7-phenylheptyloxy)-3-methylphenyl)pentan-3-yl)-2-methylphenoxy)propane-1,2-diol] | > 30 | > 10
10 | CCC(CC)(c1ccc(OCC(O)C(C)(C)CCCc2ccccc2)c(C)c1)c1ccc(OC[C@@H](O)CO)c(C)c1 (stereo partly drawn) [(2S)-3-(4-(3-(4-(2-hydroxy-3,3-dimethyl-6-phenylhexyloxy)-3-methylphenyl)pentan-3-yl)-2-methylphenoxy)propane-1,2-diol] | 3.6 | 0.13
11 | CCC(CC)(c1ccc(OCC(O)C(C)(C)Cc2ccc3ccccc3c2)c(C)c1)c1ccc(OC[C@@H](O)CO)c(C)c1 (stereo partly drawn) [(2S)-3-(4-(3-(4-(2-hydroxy-3,3-dimethyl-4-(naphthalen-2-yl)butoxy)-3-methylphenyl)pentan-3-yl)-2-methylphenoxy)propane-1,2-diol] | > 30 | > 10
12 | CCC(CC)(c1ccc(OCC(=O)C(C)(C)CCCCc2ccccc2)c(C)c1)c1ccc(OC[C@@H](O)CO)c(C)c1 [(S)-1-(4-(3-(4-(2,3-dihydroxypropoxy)-3-methylphenyl)pentan-3-yl)-2-methylphenoxy)-3,3-dimethyl-7-phenylheptan-2-one] | > 30 | > 30
13 | CCC(CC)(c1ccc(OC[C@H](O)CO)c(C)c1)c1ccc(OC[C@@H](O)C(C)(C)C)c(C)c1 [(R)-3-(4-(3-(4-((S)-2-hydroxy-3,3-dimethylbutoxy)-3-methylphenyl)pentan-3-yl)-2-methylphenoxy)propane-1,2-diol] | – | 0.068
14 | CCC(CC)(c1ccc(OCC(O)C(C)(C)Cc2ccccc2)c(C)c1)c1ccc(OC[C@@H](O)CO)c(C)c1 (stereo partly drawn) [(2S)-3-(4-(3-(4-(2-hydroxy-3,3-dimethyl-4-phenylbutoxy)-3-methylphenyl)pentan-3-yl)-2-methylphenoxy)propane-1,2-diol] | 11 | 1.7

Second part, the compound after the results:

Row | EC50 [1] [µM] | IC50 [2] [µM] | SMILES
15 | 21 | > 10 | CCC(CC)(c1ccc(OCC(=O)C(C)(C)Cc2ccccc2)c(C)c1)c1ccc(OC[C@@H](O)CO)c(C)c1 [(S)-1-(4-(3-(4-(2,3-dihydroxypropoxy)-3-methylphenyl)pentan-3-yl)-2-methylphenoxy)-3,3-dimethyl-4-phenylbutan-2-one]
16 | 23 | 1.1 | CCC(CC)(c1ccc(OCC(=O)C(C)(C)CCc2ccccc2)c(C)c1)c1ccc(OC[C@@H](O)CO)c(C)c1 [(S)-1-(4-(3-(4-(2,3-dihydroxypropoxy)-3-methylphenyl)pentan-3-yl)-2-methylphenoxy)-3,3-dimethyl-5-phenylpentan-2-one]
17 | > 30 | 9.8 | CCC(CC)(c1ccc(OCC(=O)C(C)(C)CCCc2ccccc2)c(C)c1)c1ccc(OC[C@@H](O)CO)c(C)c1 [(S)-1-(4-(3-(4-(2,3-dihydroxypropoxy)-3-methylphenyl)pentan-3-yl)-2-methylphenoxy)-3,3-dimethyl-6-phenylhexan-2-one]
18 | – | 0.015 | CCC(CC)(c1ccc(OCC(=O)C(C)(C)C)c(C)c1)c1ccc(OC[C@H](O)CO)c(C)c1 [(R)-1-(4-(3-(4-(2,3-dihydroxypropoxy)-3-methylphenyl)pentan-3-yl)-2-methylphenoxy)-3,3-dimethylbutan-2-one]
19 | 0.09 | – | CCC(CC)(c1ccc(OCC(=O)C(C)(C)C)c(C)c1)c1ccc(OCC(O)CO)c(C)c1 (stereo not given) [LG190178]
20 | – | 0.003 | CCC(CC)(c1ccc(OC[C@@H](O)CO)c(C)c1)c1ccc(OC[C@H](O)C(C)(C)C)c(C)c1 [(2S)-3-{4-[1-ethyl-1-(4-{[(2R)-2-hydroxy-3,3-dimethylbutyl]oxy}-3-methylphenyl)propyl]-2-methylphenoxy}propane-1,2-diol]
21 | – | 0.032 | CCC(CC)(c1ccc(OCC(=O)C(C)(C)C)c(C)c1)c1ccc(OC[C@@H](O)CO)c(C)c1 [(S)-1-(4-(3-(4-(2,3-dihydroxypropoxy)-3-methylphenyl)pentan-3-yl)-2-methylphenoxy)-3,3-dimethylbutan-2-one]
